The results in this text go back to PMC9269349, “Characterization of Four New Compounds from Protea cynaroides Leaves and Their Tyrosinase Inhibitory Potential” (Plants, 2022).

Chain of mushroom tyrosinase (G1K3P4 entry or part of it): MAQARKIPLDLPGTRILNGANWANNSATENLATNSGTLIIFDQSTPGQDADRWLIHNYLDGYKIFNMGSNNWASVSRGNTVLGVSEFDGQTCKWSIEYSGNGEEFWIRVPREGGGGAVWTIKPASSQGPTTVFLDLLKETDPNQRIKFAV
Chain of mushroom tyrosinase (C7FF04 1-392): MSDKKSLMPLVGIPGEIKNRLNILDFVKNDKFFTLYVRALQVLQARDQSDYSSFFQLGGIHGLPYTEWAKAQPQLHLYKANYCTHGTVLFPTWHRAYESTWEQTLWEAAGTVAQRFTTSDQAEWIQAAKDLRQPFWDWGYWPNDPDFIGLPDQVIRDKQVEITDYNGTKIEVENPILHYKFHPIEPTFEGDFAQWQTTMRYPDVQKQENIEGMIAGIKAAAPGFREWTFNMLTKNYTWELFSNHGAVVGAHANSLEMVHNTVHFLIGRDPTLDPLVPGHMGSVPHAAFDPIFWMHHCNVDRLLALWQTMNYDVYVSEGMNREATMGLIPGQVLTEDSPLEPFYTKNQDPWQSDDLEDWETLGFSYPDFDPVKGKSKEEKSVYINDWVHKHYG

The target in this test is mushroom tyrosinase (Agaricus bisporus, UniProt C7FF04). Description: Antityrosinase inhibition assay (L-tyrosine substrate, absorbance at 490 nm). It counts as biochemical. To be noted: against L-tyrosine substrate. The method, then:
The skin enzymatic inhibitory assay was executed during the study following the approach used by Curto et al. and Nerya et al.. Extracts and isolates were dissolved in dimethyl sulfoxide (DMSO) to a final concentration of 20 mg/mL. […] After incubation at room temperature for 5 min, 110 μL of the substrate (2 mM L-tyrosine) was added to each well. […] Incubation commenced for 30 min at room temperature by measuring the absorbance at 490 nm with the […]1.11).
For `OC[C@H]1OC[C@H](O)[C@@H](O)[C@@H]1O` [Compound 5, 1,5-anhydro-D-glucitol], the “tyrosinase inhibitory activity (in words)” value is listed as “weak activity”.

Take `O=C(O)c1ccc(O)cc1` [Compound 6, 4-hydroxybenzoic acid]: the “tyrosinase inhibitory activity (in words)” value is “weak activity”. Consider `O=C(OCC1OC(Oc2c(CO)occc2=O)C(O)C(O)C1O)c1ccc(O)cc1` (centres unmarked) [Compound 3], for which the “tyrosinase inhibitory activity (in words)” value was “low inhibitory activity”. Turning to `O=C(O)c1ccc(O)c(O)c1` [Compound 7, 3,4-dihydroxybenzoic acid], the “tyrosinase inhibitory activity (in words)” value is listed as “potent competitive tyrosinase inhibition”.

For the compound `O=c1c(O)coc(CO)c1O` [Compound 8, 3-hydroxykojic acid], the “tyrosinase inhibitory activity (in words)” value was “potent competitive tyrosinase inhibition”.
